In US7468457B2, “Ligand inhibitors of the RAR receptors, process for preparing same and therapeutic/cosmetic applications thereof” (Galderma Research & Development, priority 2002, dated 2008):

Legend:
Assay type in all cases: cell-based
RAR ALPHA = target: T1, RAR ALPHA (Homo sapiens, UniProt P10276); assay: Transactivation test (luciferase reporter, HeLa stable transfectants), RAR alpha; conditions: HeLa cells; for Kd: apparent Kd from Schild regression of crossed curves against reference agonist, read-out: RAR ALPHA Kd app; for IC50: inhibition at the reference agonist concentration that gives 80% activation
T1 sequence (P10276 183-417 limits assumed): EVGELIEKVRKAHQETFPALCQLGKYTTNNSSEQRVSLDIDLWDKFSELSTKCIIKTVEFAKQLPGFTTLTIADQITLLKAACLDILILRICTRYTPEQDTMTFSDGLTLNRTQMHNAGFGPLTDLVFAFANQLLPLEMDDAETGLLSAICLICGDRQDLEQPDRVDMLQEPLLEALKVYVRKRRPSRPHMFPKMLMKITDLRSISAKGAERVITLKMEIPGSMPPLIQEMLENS
Method: (§1) The activation of receptors with an agonist (activator) in HeLa cells leads to the expression of a reporter gene, luciferase, which, in the presence of a substrate, generates light. The activation of the receptors may thus be measured by quantifying the luminescence produced after incubating the cells in the presence of a reference agonist. The inhibitory products displace the agonist from its site, thus preventing activation of the receptor. The activity is measured by quantifying the reduction in light produced. This measurement makes it possible to determine the inhibitory activity of the compounds according to the invention.
(§2) Determination of the Kdapp:
(§3) In this study, a constant is determined which represents the affinity of the molecule for the receptor. Since this value can fluctuate depending on the basal activity and the expression of the receptor, it is referred to as the Kd apparent (KdApp).
(§4) To determine this constant, “crossed curves” of the test product against a reference agonist, 4-[2-(5,5,8,8-tetramethyl-5,6,7,8-tetrahydro-2-naphthyl)propenyl]benzoic acid, are performed in 96-well plates. The test product is used at 10 concentrations and the reference agonist at 7 concentrations. In each well, the cells are in contact with a concentration of the test product and a concentration of the reference agonist, 4-[2-(5,5,8,8-tetramethyl-5,6,7,8-tetrahydro-2-naphthyl)propenyl]benzoic acid. Measurements are also taken for the total agonist (4-[2-(5,5,8,8-tetramethyl-5,6,7,8-tetrahydro-2-naphthyl)propenyl]benzoic acid) and inverse agonist, 4-{(E)-3-[4-(4-tert-butylphenyl)-5,5,8,8-tetramethyl-5,6,7,8-tetrahydro-2-naphthyl]-3-oxopropenyl}benzoic acid, controls.
(§5) These crossed curves make it possible to determine the AC50 values (concentration at which 50% activation is observed) for the reference ligand at various concentrations of test product. These AC50 values are used to calculate the Schild regression by plotting a straight line corresponding to the Schild equation (“quantition in receptor pharmacology” Terry P. Kenakin, Receptors and Channels, 2001,7,371-385).
(§6) In the case of an antagonist, an IC50 value (concentration that inhibits 50% of the activity) is calculated by plotting the curve of the product at the concentration of the reference ligand that gives 80% activation.
(§7) The HeLa cell lines used are stable transfectants containing the plasmids ERE-βGlob-Luc-SV-Neo (reporter gene) and RAR (α, β, γ) ER-DBD-puro. These cells are inoculated into 96-well plates at a rate of 10 000 cells per well in 100 μl of DMEM medium without phenol red, and supplemented with 10% defatted calf serum. The plates are then incubated at 37° C. and 7% CO2 for 4 hours.
(§8) The various dilutions of the test products, of the reference ligand (4-[2-(5,5,8,8-tetramethyl-5,6,7,8-tetrahydro-2-naphthyl)propenyl]benzoic acid), of the 100% control (100 nM 4-[2-(5,5,8,8-tetramethyl-5,6,7,8-tetrahydro-2-naphthyl)propenyl]benzoic acid) and of the 0% control (500 nM 4-{(E)-3-[4-(4-tert-butylphenyl)-5,5,8,8-tetramethyl-5,6,7,8-tetrahydro-2-naphthyl]-3-oxopropenyl}benzoic acid) are added at a rate of 5 μl per well. The plates are then incubated for 18 hours at 37° C. and 7% CO2.
(§9) The culture medium is removed by turning over and 100 μl of a 1:1 PBS/luciferine mixture is added to each well. After 5 minutes, the plates are read using the luminescence detector.

RAR BETA = target: T2, RAR BETA (Homo sapiens, UniProt P10826); assay: Transactivation test (luciferase reporter, HeLa stable transfectants), RAR beta; conditions: HeLa cells; for Kd: apparent Kd from Schild regression of crossed curves against reference agonist, read-out: RAR BETA Kd app; for IC50: inhibition at the reference agonist concentration that gives 80% activation
T2 sequence (P10826 183-455 limits assumed): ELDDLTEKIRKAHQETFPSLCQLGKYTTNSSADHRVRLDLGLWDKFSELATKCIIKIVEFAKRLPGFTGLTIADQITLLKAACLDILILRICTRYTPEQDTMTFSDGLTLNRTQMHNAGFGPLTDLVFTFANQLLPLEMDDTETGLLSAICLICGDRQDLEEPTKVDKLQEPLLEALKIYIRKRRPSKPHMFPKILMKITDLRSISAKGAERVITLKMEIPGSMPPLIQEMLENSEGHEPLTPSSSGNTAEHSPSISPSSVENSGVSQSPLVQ
Method: as §1, §2, §3, §4, §5, §6, §7, §8, §9

RAR GAMMA = target: T3, RAR GAMMA (Homo sapiens, UniProt P13631); assay: Transactivation test (luciferase reporter, HeLa stable transfectants), RAR gamma; conditions: HeLa cells; for Kd: apparent Kd from Schild regression of crossed curves against reference agonist, read-out: RAR GAMMA Kd app; for IC50: inhibition at the reference agonist concentration that gives 80% activation
T3 sequence (P13631 185-454 limits assumed): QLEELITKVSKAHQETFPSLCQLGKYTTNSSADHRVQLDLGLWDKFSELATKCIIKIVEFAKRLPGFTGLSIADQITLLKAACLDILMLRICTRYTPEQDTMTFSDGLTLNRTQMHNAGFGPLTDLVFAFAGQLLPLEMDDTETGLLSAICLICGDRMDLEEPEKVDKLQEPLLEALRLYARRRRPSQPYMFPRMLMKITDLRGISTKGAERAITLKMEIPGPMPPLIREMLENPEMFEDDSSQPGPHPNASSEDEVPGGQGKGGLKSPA
Method: as §1, §2, §3, §4, §5, §6, §7, §8, §9

Row | Kd (RAR ALPHA) [nM] | IC50 (RAR ALPHA) [nM] | Kd (RAR BETA) [nM] | IC50 (RAR BETA) [nM] | Kd (RAR GAMMA) [nM] | IC50 (RAR GAMMA) [nM] | SMILES
1 | 4000 | 7000 | 60 | 96 | 15 | 37.5 | Cc1ccc(-c2cc(C(O)C#Cc3ccc(C(=O)O)cc3)cc3c2C(C)(C)CCC3(C)C)cc1 (stereo not drawn) [Ex. 5, 4-[3-Hydroxy-3-(5,5,8,8-tetramethyl-4-p-tolyl-5,6,7,8-tetrahydro-2-naphthyl)-1-propynyl]benzoic Acid]
2 | 1 | 1.75 | 0.25 | 0.4 | 1 | 2.5 | Cc1ccc(-c2cc(C(=O)/C=C/c3ccc(C(=O)O)cc3)cc3c2C(C)(C)CCC3(C)C)cc1 [Ex. 7]
3 | 2 | 3.5 | 4 | 6.4 | 0.25 | 0.625 | CC(C)(C)c1ccc(-c2cc(C(=O)/C=C/c3ccc(C(=O)O)cc3)cc3c2C(C)(C)CCC3(C)C)cc1 [Ex. 8, 4-{(E)-3-[4-(4-tert-Butylphenyl)-5,5,8,8-tetramethyl-5,6,7,8-tetrahydro-2-naphthyl]-3-oxopropenyl}benzoic Acid]
4 | 250 | 437 | 500 | 800 | 30 | 75 | Cc1ccc(-c2cc(C(O)/C=C/c3ccc(C(=O)O)cc3)cc3c2C(C)(C)CCC3(C)C)cc1 (stereo not drawn) [Ex. 9, 4-[(E)-3-Hydroxy-3-(5,5,8,8-tetramethyl-4-p-tolyl-5,6,7,8-tetrahydro-2-naphthyl)propenyl]benzoic Acid]
